# No end group written: not given here.
# Columns and labels:
# [1] = tested on: E. coli lipopolysaccharide (LPS); test: E. coli LPS acute respiratory distress syndrome (ARDS) model; format: in vivo, mice; details: 3 mg/kg LPS
# Description: FIG. 34 panels B-D show lung injury score (FIG. 34 panel B), % weight loss (FIG. 34 panel C), and % BAL neutrophils (FIG. 34 […]) in relation to FIG. 34 panel A. Lung injury scoring system taken from Aeffner et al. Mouse Models of Acute Respiratory Distress Syndrome: A Review of Analytical Approaches, Pathologic Features, and Common Measurements. 2015 Tox Pathol.
# ELD607 reduces inflammation in an acute respiratory distress syndrome (ARDS) model. Mice were intratracheally to 3 mg/kg E. coli lipopolysaccharide (LPS). 0.5 mg/kg ELD607 was instilled intranasally 1 or 6 h later. As a control, 3 mg/kg dexamethasone was given intranasally.
# [2] = tested on: HEK293 T cells; test: Cytotoxicity in HEK293 T cells (calcein); format: cell-based; details: 100 μM, 24 h
# Description: (§1) FIG. 28 panels C and D show cell viability per arbitrary units (left) and transepithelial resistance (right) of vehicle vs. ELD607 before and after treatment.
# (§2) ELD607 is non-toxic in vitro and in vivo. To investigate potential cytotoxic effects of ELD607, […] were exposed to 100 μM ELD607 for 24 h. Cytotoxicity was assessed by exposing cells to calcein to label live cells and fluorescence read by multi-plate reader. […] Primary human bronchial epithelial cultures were exposed to 1 mM ELD607 or vehicle control (saline) for 24 h. Cytotoxicity was assessed by confocal microscopy using calcein and propidium iodide to label live and dead cells respectively. […] Transepithelial resistance was also measured before and after treatment as a measure of epithelial integrity.
# [3] = target: Orai1 (Homo sapiens, UniProt Q96D31); test: Orai1 immunocytochemistry on immune cells of ARDS/bacterial pneumonia patients; format: cell-based; parameters: immune cells of ARDS/bacterial pneumonia patients; endogenous in cells; host or cells: immune cells from tracheal aspirates of ARDS/bacterial pneumonia patients; details: paired patient samples
# Text: We then performed Orai1 immunocytochemistry on paired samples of immune cells of ARDS/bacterial pneumonia patients. Cells derived from each patient were exposed to either vehicle, ELD607, or scrambled ELD607 (FIG. 27, panels D and E).
# [4] = tested on: immune cells from tracheal aspirates of ARDS/bacterial pneumonia patients; test: Thapsigargin-induced cytosolic Ca^2+ in immune cells from ARDS/bacterial pneumonia patients; format: cell-based, human; details: Fluo-4, 1 h exposure
# Description: We next obtained tracheal aspirates from intubated ARDS/bacterial pneumonia patients. We immediately isolated immune cells from these samples and simultaneously loaded them with the Ca^2+ dye Fluo-4 and exposed them to vehicle, ELD607 or scrambled peptide for 1 h.
# [5] = tested on: P. aeruginosa; test: P. aeruginosa infection in WT mice, ELD607 versus comparators; format: in vivo; details: WT mice infected with P. aeruginosa
# Text: We then infected WT mice with P. aeruginosa and treated with ELD607, the Orai1 small molecule antagonist […], dexamethasone or scrambled ELD607.
# [6] = tested on: SARS-CoV-2 S1 pseudovirus; format: cell-based
# [7] = tested on: P. aeruginosa; test: P. aeruginosa growth in the presence of peptide; format: cell-based; details: in vitro
# [8] = tested on: HEK293T cells; test: Store operated Ca^2+ influx in HEK293T cells after incubation of peptide in ARDS BAL; format: cell-based
# Text: ELD607 is active in ARDS patient immune cells. Pulmonary neutrophilic inflammation and increased lung neutrophil elastase levels are common in ARDS patient lungs. We therefore evaluated whether ELD607 remained stable in BAL samples patients with ARDS caused by bacterial pneumonia. […] (FIG. 27, panel A).
# [9] = tested on: αSMA; test: αSMA deposition in primary myofibroblasts from IPF patients; format: cell-based, human; details: primary myofibroblasts from five IPF patients
# Description: Each pair of point represents paired data from 5 different IPF donors.
# (§3) In vitro Methods: Fibroblasts were exposed to 10 nM TFGβ for 3-7 days as indicated. Then, ELD607 was added overnight. Fibroblasts were then fixed in paraformaldehyde, stained with primary a smooth muscle actin (αSMA) antibody, and imaged by confocal microscopy. Myofibroblasts were exposed to ELD607 without any TGFβ pre-treatment. In some cases, Western blotting was used to probe for αSMA.
# [10] = tested on: Primary human bronchial epithelial cultures; test: Cytotoxicity and transepithelial resistance in primary human bronchial epithelial cultures; format: cell-based; details: 1 mM, 24 h
# Description: as §1, §2
# [11] = tested on: αSMA; test: TGFβ-induced myofibroblast differentiation of CCL-210 fibroblasts (αSMA); format: cell-based, human; details: CCL-210, 7 days 10 ng/mL TGFβ, then ELD607 for 48 hours
# Description: FIG. 36A-36C show ELD607 reduces TGFβ-induced myofibroblast formation. FIG. 36A is a schematic showing fibroblast to myofibroblast formation and αSMA deposition. […] Data are mean data from Western blots in normal fibroblasts.
# as §3, with “Then, ELD607 was added overnight.” left out
# ELD607 reverses myofibroblast differentiation. Increased alpha smooth muscle actin (αSMA) deposition is a hallmark of damaged IPF lungs, and is a common marker for identifying when fibroblasts turn into myofibroblasts—key drivers of fibrosis, and it is generally considered that less αSMA is beneficial (FIG. 36A). It was then determined whether ELD607 alters myofibroblast formation. The human lung fibroblast cell line CCL-210 was treated for 7 days with 10 ng/mL TGFβ to induce myofibroblast differentiation.
# [12] = tested on: HEK293T cells; test: Inhibition of Ca^2+ influx in HEK293T cells after pre-incubation of peptide in CF sputum; format: cell-based; details: peptide incubated 6 h in CF sputum, then HEK293T cells, thapsigargin
# Orai1, sequence (Q96D31 whole entry): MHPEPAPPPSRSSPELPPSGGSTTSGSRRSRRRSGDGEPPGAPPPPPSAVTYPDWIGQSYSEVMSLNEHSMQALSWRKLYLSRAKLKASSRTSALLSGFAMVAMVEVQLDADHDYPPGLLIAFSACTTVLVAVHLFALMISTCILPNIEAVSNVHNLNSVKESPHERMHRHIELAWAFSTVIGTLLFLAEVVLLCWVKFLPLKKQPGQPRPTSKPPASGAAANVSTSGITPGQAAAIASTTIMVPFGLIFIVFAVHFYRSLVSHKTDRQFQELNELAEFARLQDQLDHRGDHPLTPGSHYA
sequence,measurement,setting,value
"VHDIVNMLIRG [ELD607, VHDIVNMLIRG]",BAL neutrophilia,[1]; 0.5 mg/kg ELD607 intranasally,attenuated BAL neutrophilia
same,weight loss,[1]; 0.5 mg/kg ELD607 intranasally,reduced weight loss
same,lung damage (lung injury score),[1]; 0.5 mg/kg ELD607 intranasally 1 or 6 h later,significantly reduced lung damage caused by LPS
same,cell viability (calcein),[2],not significantly different to vehicle control
same,Orai1 levels,[3],significant reduction in Orai1 levels
same,thapsigargin elevation of cytosolic Ca^2+,[4],not after exposure to ELD607
same,bacterial infections,[5],significantly reduced
same,lung macrophage levels,[5],increased lung macrophage levels
same,neutrophilia,[5],significantly reduced
same,weight loss,[5],significantly reduced
same,pseudovirus infection (% DsRed-positive cells),[6],significantly reduced infection
same,P. aeruginosa growth,[7],no effect on P. aeruginosa growth
same,inhibition of store operated Ca^2+ influx after incubation in ARDS BAL,[8],did not prevent ELD607 from inhibiting store operated Ca^2+ influx
same,αSMA deposition,[9],significantly reduces αSMA deposition
same,cytotoxicity (calcein and propidium iodide),[10],not significantly different to vehicle control
same,transepithelial resistance,[10]; before and after treatment,No differences were found
same,αSMA levels (western blot and immunofluorescence),[11],significantly reduced
same,inhibition of Ca^2+ influx after pre-exposure to CF sputum,[12],retained full functionality

# Reference: patent US20250114430A1, “MODIFIED PEPTIDOMIMETICS AND METHODS OF USE” (The University of North Carolina at Chapel Hill, priority 2021, published 2025)
